Results taken from US9296734B2 (AMGEN INC., priority 2013, dated 2016).
Read-outs that look alike come from different tables or passages of the source.

Columns and labels:
[1] = test system: Abeta 40 in CSF and brain; experiment: In vivo inhibition of beta-secretase: Abeta 40 reduction in CSF and brain of the rat; settings: 10 mpk (unless otherwise noted), after 4 hrs
From the text: In Vivo Inhibition of Beta-Secretase
Several animal models, including mouse, rat, dog, and monkey, may be used to screen for inhibition of beta-secretase activity in vivo following administration of a test compound sample. Animals used in this invention can be wild type, transgenic, or gene knockout animals. […] A separate group of animals receive 2% hydroxypropyl methylcellulose, 1% Tween80 alone, containing no test compound, and serve as a vehicle-control group. At the end of the test period, animals are sacrificed and brain tissues, plasma or cerebrospinal fluid are collected. […] Homogenates are centrifuged at 355,000 g, 4° C. for 30 minutes. CSF or brain supernatants are then analyzed for the presence of A-beta peptide by specific sandwich ELISA assays based on ECL (Electrochemiluminescence) technology. For example, rat Abeta40 is measured using biotinylated-4G8 (Signet) as a capture antibody and Fab40 (an in-house antibody specific to the C-terminal of Abeta40) as a detection antibody.
Actual vehicles used: Oral: 2% HPMC, 1% Tween80, pH 2.2

Cathepsin D (Cat D) = Cathepsin D (Cat D) (Homo sapiens (Human), UniProt P07339); experiment: In vitro enzymatic Cathepsin D (Cat D) FRET assay; assay type: biochemical; settings: read-out: CatD IC50
Outline: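 CHO-expressed recombinant Cat D cleaves a fluorophore/quencher FRET peptide (20 nM) in 0.05 M citrate pH 3.5, 5 mM CHAPS, 10% DMSO final, over 1 h. Tris addition neutralizes pH to stop the reaction; fluorescence read at excitation 500 nm, emission 580 nm.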

[2] = target: Beta Secretase enzyme (BACE) (Homo sapiens (Human), UniProt P56817); experiment: In vitro enzymatic BACE FRET assay; assay type: biochemical; settings: read-out: BACE 1 FRET assay IC50
Outline: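 Reactions ran in 0.05 M acetate pH 4.2 with 10% DMSO final and 100 uM genapol. They were started with 50 nM peptide FRET substrate (fluorophore and quencher flanking the BACE cleavage site) and incubated one hour. Tris addition raised the pH to neutral to stop the reaction before fluorescence reading.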

[3] = test system: Aβ40 in conditioned medium of cells stably expressing Amyloid Precursor Protein (APP); experiment: In vitro BACE cell-based assay (Aβ40 sandwich ELISA); settings: Homo sapiens
Outline: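 Secreted Aβ40 was quantified by sandwich ELISA (pAb40 capture, biotinylated 6E10 detection, Europium time-resolved fluorescence). IC50 derived from percent inhibition versus concentration.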

[4] = Abeta 40, rat CSF, read-out: % reduction of rat CSF levels at 10 pmk
[5] = Abeta 40, rat brain, read-out: % reduction of rat brain levels at 10 mpk
[6] = average IC50, cathepsin D enzyme assay
[7] = average IC50, BACE enzyme assay
[8] = HEK293, average IC50, HEK cell assay, read-out: HEK cell assay IC50
[9] = HEK293, average IC50, HEK cells, read-out: HEK cell assay IC50
[10] = HEK293, read-out: HEK cell assay IC50
[11] = HEK293, HEK cells, average, read-out: HEK cell assay IC50

Cathepsin D (Cat D), sequence (P07339 65-412, species assumed): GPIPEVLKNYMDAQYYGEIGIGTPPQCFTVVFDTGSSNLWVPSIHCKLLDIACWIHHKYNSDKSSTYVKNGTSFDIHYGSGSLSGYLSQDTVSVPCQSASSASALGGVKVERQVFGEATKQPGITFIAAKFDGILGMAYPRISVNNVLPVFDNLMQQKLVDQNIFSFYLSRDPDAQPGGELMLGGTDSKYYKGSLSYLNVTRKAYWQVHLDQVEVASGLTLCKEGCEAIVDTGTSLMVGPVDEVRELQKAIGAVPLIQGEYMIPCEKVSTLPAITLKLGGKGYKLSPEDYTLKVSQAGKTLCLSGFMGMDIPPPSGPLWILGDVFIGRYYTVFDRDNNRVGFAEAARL
Beta Secretase enzyme (BACE), sequence (P56817 46-501): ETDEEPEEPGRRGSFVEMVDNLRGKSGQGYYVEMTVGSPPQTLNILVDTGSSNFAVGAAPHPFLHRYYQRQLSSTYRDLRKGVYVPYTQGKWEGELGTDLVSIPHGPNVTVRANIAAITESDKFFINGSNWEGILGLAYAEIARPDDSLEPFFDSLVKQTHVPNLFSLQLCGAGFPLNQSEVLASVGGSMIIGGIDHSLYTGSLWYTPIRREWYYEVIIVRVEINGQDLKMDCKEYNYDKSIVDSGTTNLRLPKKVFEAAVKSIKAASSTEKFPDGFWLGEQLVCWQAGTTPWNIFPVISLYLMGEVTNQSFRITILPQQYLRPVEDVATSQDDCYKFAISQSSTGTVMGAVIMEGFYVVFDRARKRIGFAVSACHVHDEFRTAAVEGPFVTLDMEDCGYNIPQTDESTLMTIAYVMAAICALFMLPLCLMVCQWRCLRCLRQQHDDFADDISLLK

IC50 (Cathepsin D (Cat D); average IC50)	IC50 (Cathepsin D (Cat D); [6])	IC50 [2, 7]	IC50 [3, 8]	Structure (SMILES)	further results
> 400 µM				COc1cnc(C(=O)Nc2ccc(F)c([C@]3(CF)C[C@@H](C(F)(F)F)OC(N)=N3)c2)cn1 [Example 2, N-(3-((4S,6S)-2-amino-4-(fluoromethyl)-6-(trifluoromethyl)-5,6-dihydro-4H-1,3-oxazin-4-yl)-4-fluorophenyl)-5-methoxypyrazine-2-carboxamide]	inhibition in vivo at 10 mg/kg [1, 4]: 70%; inhibition in vivo at 10 mg/kg [1, 5]: 61%
	113 µM			C[C@@]1(c2cc(NC(=O)c3ncc(C#N)cc3Cl)cc(F)c2F)C[C@@H](C(F)(F)F)OC(N)=N1 [Example 167, N-(3-((4S,6S)-2-amino-4-methyl-6-(trifluoromethyl)-5,6-dihydro-4H-1,3-oxazin-4-yl)-4,5-difluorophenyl)-3-chloro-5-cyanopicolinamide]	inhibition in vivo at 10 mg/kg [1, 4]: 42%; inhibition in vivo at 10 mg/kg [1, 5]: 15%
	> 400 µM	0.026 µM	0.051 µM	Cc1cc(OC(F)F)cnc1C(=O)Nc1ccc(F)c([C@]2(CF)C[C@@H](C(F)(F)F)OC(N)=N2)c1 [Example 42, N-(3-((4S,6S)-2-amino-4-(fluoromethyl)-6-(trifluoromethyl)-5,6-dihydro-4H-1,3-oxazin-4-yl)-4-fluorophenyl)-5-(difluoromethoxy)-3-methylpicolinamide]	
	1630 µM			NC1=N[C@](CF)(c2cc(Nc3cc(Cl)ccn3)ccc2F)C[C@@H](C(F)(F)F)O1 [Example 16, (4S,6S)-4-(5-((4-chloropyridin-2-yl)amino)-2-fluorophenyl)-4-(fluoromethyl)-6-(trifluoromethyl)-5,6-dihydro-4H-1,3-oxazin-2-amine]	inhibition in vivo at 10 mg/kg [1, 4]: 83%; inhibition in vivo at 10 mg/kg [1, 5]: 87%
	210 µM	> 40 µM	3.01 µM	C[C@@]1(c2cc(Nc3nc4ccc(Cl)cc4o3)ccc2F)C[C@@H](C(F)(F)F)OC(N)=N1 [Example 29, N-(3-((4S,6S)-2-amino-4-methyl-6-(trifluoromethyl)-5,6-dihydro-4H-1,3-oxazin-4-yl)-4-fluorophenyl)-6-chlorobenzo[d]oxazol-2-amine]	
733 µM				NC1=N[C@](CF)(c2cccc(Nc3nccc4cc(Cl)cnc34)c2)C[C@@H](C(F)(F)F)O1 [Example 146, (4S,6S)-4-(3-((3-chloro-1,7-naphthyridin-8-yl)amino)phenyl)-4-(fluoromethyl)-6-(trifluoromethyl)-5,6-dihydro-4H-1,3-oxazin-2-amine]	IC50 ([2]; average IC50): 0.067 µM; IC50 [3, 9]: 0.119 µM
> 400 µM				NC1=N[C@](CF)(c2cc(NC(=O)c3ccc(Br)cn3)ccc2F)C[C@@H](C(F)(F)F)O1 [Example 52, N-(3-((4S,6S)-2-amino-4-(fluoromethyl)-6-(trifluoromethyl)-5,6-dihydro-4H-1,3-oxazin-4-yl)-4-fluorophenyl)-5-bromopicolinamide]	inhibition in vivo at 10 mg/kg [1, 4]: 61%; inhibition in vivo at 10 mg/kg [1, 5]: 54%
	> 133 µM	0.033 µM	2.33 µM	NC1=N[C@](CF)(c2cc(Nc3ncc(F)c4cc(C#CC5CC5)cnc34)ccc2F)C[C@@H](C(F)(F)F)O1 [Example 54, (4S,6S)-4-(5-((3-(cyclopropylethynyl)-5-fluoro-1,7-naphthyridin-8-yl)amino)-2-fluorophenyl)-4-(fluoromethyl)-6-(trifluoromethyl)-5,6-dihydro-4H-1,3-oxazin-2-amine]	
> 400 µM				C[C@@]1(c2cc(Nc3ncnc4cc(Cl)cnc34)cnc2F)C[C@@H](C(F)(F)F)OC(N)=N1 [Example 74, (4S,6S)-4-(5-((7-chloropyrido[3,2-d]pyrimidin-4-yl)amino)-2-fluoropyridin-3-yl)-4-methyl-6-(trifluoromethyl)-5,6-dihydro-4H-1,3-oxazin-2-amine]	IC50 ([2]; average IC50): 0.088 µM; IC50 [3, 9]: 0.0376 µM
				Cc1cc(C#N)cnc1C(=O)Nc1ccc(F)c([C@]2(CF)C[C@@H](C(F)(F)F)OC(N)=N2)c1 [Example 51, N-(3-((4S,6S)-2-amino-4-(fluoromethyl)-6-(trifluoromethyl)-5,6-dihydro-4H-1,3-oxazin-4-yl)-4-fluorophenyl)-5-cyano-3-methylpicolinamide]	inhibition in vivo at 10 mg/kg [1, 4]: 68%; inhibition in vivo at 10 mg/kg [1, 5]: 59%
	3360 µM	0.05 µM	0.126 µM	COc1cnc(C(=O)Nc2cc(F)c(F)c([C@]3(CF)C[C@@H](C(F)(F)F)OC(N)=N3)c2)cn1 [Example 153, N-(3-((4S,6S)-2-amino-4-(fluoromethyl)-6-(trifluoromethyl)-5,6-dihydro-4H-1,3-oxazin-4-yl)-4,5-difluorophenyl)-5-methoxypyrazine-2-carboxamide]	
> 400 µM	717 µM	0.169 µM	0.132 µM	NC1=N[C@](CF)(c2nc(NC(=O)c3ccc(Cl)cn3)ccc2F)C[C@@H](C(F)(F)F)O1 [Example 136, N-(6-((4S,6S)-2-amino-4-(fluoromethyl)-6-(trifluoromethyl)-5,6-dihydro-4H-1,3-oxazin-4-yl)-5-fluoropyridin-2-yl)-5-chloropicolinamide]	IC50 ([2]; average IC50): 32 µM; IC50 [3, 9]: > 15.6 µM
	150 µM	0.079 µM	0.124 µM	C[C@@]1(c2cc(NC(=O)c3ccc(OCC(F)(F)F)cn3)cnc2F)C[C@@H](C(F)(F)F)OC(N)=N1 [Example 65, N-(5-((4S,6S)-2-amino-4-methyl-6-(trifluoromethyl)-5,6-dihydro-4H-1,3-oxazin-4-yl)-6-fluoropyridin-3-yl)-5-(2,2,2-trifluoroethoxy)picolinamide]	
				N#Cc1ccc(C#Cc2ccc(F)c([C@]3(CF)C[C@@H](C(F)(F)F)OC(N)=N3)c2)nc1 [Example 125, 6-((3-((4S,6S)-2-amino-4-(fluoromethyl)-6-(trifluoromethyl)-5,6-dihydro-4H-1,3-oxazin-4-yl)-4-fluorophenyl)ethynyl)nicotinonitrile]	IC50 ([2]; average): 0.509 µM; IC50 (Cathepsin D (Cat D); average): > 400 µM; IC50 [3, 11]: 0.509 µM
	3490 µM	11.4 µM	> 15.6 µM	NC1=N[C@](CF)(c2cc(C(=O)NC3CC3)ccc2F)C[C@@H](C(F)(F)F)O1 [Example 182, 3-((4S,6S)-2-amino-4-(fluoromethyl)-6-(trifluoromethyl)-5,6-dihydro-4H-1,3-oxazin-4-yl)-N-cyclopropyl-4-fluorobenzamide]	
				NC1=N[C@](CF)(c2cc(C#Cc3ccc4[nH]ccc4c3)ccc2F)C[C@@H](C(F)(F)F)O1 [Example 131, (4S,6S)-4-(5-((1H-indol-5-yl)ethynyl)-2-fluorophenyl)-4-(fluoromethyl)-6-(trifluoromethyl)-5,6-dihydro-4H-1,3-oxazin-2-amine]	IC50 ([2]; average): 0.577 µM; IC50 (Cathepsin D (Cat D); average): 381 µM; IC50 [3, 11]: 1.81 µM

Structure (SMILES)	IC50 (Cathepsin D (Cat D); average IC50)	IC50 (Cathepsin D (Cat D); [6])	IC50 [2, 7]	IC50 [3, 8]	further results
NC1=N[C@](CF)(c2cc(NC(=O)c3ccc(Cl)cn3)cnc2F)C[C@@H](C(F)(F)F)O1 [Example 139, N-(5-((4S,6S)-2-amino-4-(fluoromethyl)-6-(trifluoromethyl)-5,6-dihydro-4H-1,3-oxazin-4-yl)-6-fluoropyridin-3-yl)-5-chloropicolinamide]	> 400 µM				IC50 ([2]; average IC50): 0.0965 µM; IC50 [3, 10]: 0.418 µM
NC1=N[C@](CF)(c2cc(Oc3nccc(C(F)(F)F)c3F)ccc2F)C[C@@H](C(F)(F)F)O1 [Example 109, (4S,6S)-4-(2-fluoro-5-((3-fluoro-4-(trifluoromethyl)pyridin-2-yl)oxy)phenyl)-4-(fluoromethyl)-6-(trifluoromethyl)-5,6-dihydro-4H-1,3-oxazin-2-amine]	> 400 µM				IC50 ([2]; average IC50): 9.52 µM; IC50 [3, 10]: 8.18 µM
